Test results published in patent US20220031825A1, “IMM[…] AND VACCINE COMPOSITION INCLUDING STING AGONIST” (priority 2018, published 2022).

Key:
spleen and lung cells [1] = test: Antigen-specific multifunctional T cells after ESAT-6 stimulation (flow cytometry); details: mouse, in vivo
spleen and lung cells [2] = test: Type and number of memory T cells in spleen and lung (flow cytometry); type: in vivo, mouse; details: both spleen and lung cells of immunized mice; compared with MPL as adjuvant; FIG. 1D
From the text: In general, when infected with Mycobacterium tuberculosis, Mycobacterium tuberculosis antigen-specific T cells replicate and differentiate to become effector T cells. When the immune response disappears, most of these effector T cells die, and some form long-lasting memory T cells. It is known that the memory T cells thus formed play a critical role in the formation of a rapid acquired defense immunity and maintenance of the memorization of T cells. […] For the experiment, the spleen and lung cells of the mouse obtained in the same manner as in Example 1.2 were washed twice with PBS and then centrifuged. The centrifuged cells were treated with anti-CD3-BV421 (BD Bioscience), anti-CD4-PerCP-Cy5.5 (BD Bioscience), anti-CD8-APC-Cy7 (BD Bioscience), anti-CD44-PE (Ebioscience), anti-CD62L-FITC (Ebioscience), anti-CD127-APC (Ebioscience), etc. Then, they were reacted at 4° C. for 30 minutes. After the reaction was completed, cells were washed several times with PBS to remove unbound antibody, and then effector T cells (Teff; CD3^+CD4^+CD62L^−CD44+CD127^−), effector/memory T cells (Tem; CD3^+CD4^+CD62L^−CD44^+CD127^+), central memory T cells (Tcm; CD3^+CD4^+CD62L^+CD44^+CD127^+), and naive T cells (Naive; CD3^+CD4^+CD62L^+CD44^−CD127^+) were analyzed by using flow cytometer (FACS verse, BD).

| Compound | T cells secreting all three types of cytokines IFN-γ, TNF-α and IL-2 (spleen and lung cells [1]) | effector/memory T of CD4+/CD8+ (spleen and lung cells [2]) |
| --- | --- | --- |
| Nc1nc2c(ncn2[C@@H]2O[C@@H]3COP(=O)(O)O[C@H]4[C@@H](O)[C@H](n5cnc6c(=O)[nH]c(N)nc65)O[C@@H]4COP(=O)(O)O[C@H]3[C@H]2O)c(=O)[nH]1 [c-di-GMP, cyclic diguanylate] | increased | significant increase |
| monophosphoryl lipid A [MPL] | increased | – |
